Assay results published in the NIST ThermoML archive (doi:10.1016/j.jct.2017.01.011).

Experiment: xn = mol fraction of the nth substance listed
Settings: 100 kPa, Liquid; for speed of sound: Frequency=3 MHz, Single path-length method; for mass density: Vibrating tube method

OCC(O)CO [glycerol] + CCO
Settings | mass density, 283.15 K [kg/m3] | mass density, 293.15 K [kg/m3] | mass density, 303.15 K [kg/m3] | mass density, 313.15 K [kg/m3] | speed of sound, 283.15 K [m/s] | speed of sound, 293.15 K [m/s] | speed of sound, 303.15 K [m/s] | speed of sound, 313.15 K [m/s]
x2 = 0 | 1267 | 1261 | 1255 | 1248 | 1942.3 | 1922.9 | 1901 | 1879.3
x2 = 0.0999 | 1233 | 1227 | 1220 | 1214 | 1882.1 | 1852.5 | 1827.9 | 1804.6
x2 = 0.2002 | 1199 | 1193 | 1186 | 1179 | 1804.3 | 1778.9 | 1753.4 | 1729.7
x2 = 0.2998 | 1161 | 1155 | 1148 | 1140 | 1721.8 | 1696.1 | 1671.4 | 1647.2
x2 = 0.4001 | 1120 | 1113 | 1106 | 1099 | 1639.2 | 1613.3 | 1587.9 | 1562.8
x2 = 0.4993 | 1077 | 1069 | 1062 | 1055 | 1557.7 | 1530.9 | 1504.6 | 1478.5
x2 = 0.6004 | 1029 | 1021 | 1014 | 1006 | 1476.1 | 1448.4 | 1421.1 | 1394
x2 = 0.699 | 978 | 970 | 963 | 955 | 1401.7 | 1372.8 | 1344.2 | 1315.8
x2 = 0.9002 | 862 | 854 | 845 | 837 | 1263.5 | 1231.4 | 1199.4 | 1167.7

OCC(O)CO [glycerol] + CO
Settings | mass density, 283.15 K [kg/m3] | mass density, 293.15 K [kg/m3] | mass density, 303.15 K [kg/m3] | mass density, 313.15 K [kg/m3] | speed of sound, 283.15 K [m/s] | speed of sound, 293.15 K [m/s] | speed of sound, 303.15 K [m/s] | speed of sound, 313.15 K [m/s]
x2 = 0 | 1267 | 1261 | 1255 | 1248 | 1942.3 | 1922.9 | 1901 | 1879.3
x2 = 0.1003 | 1244 | 1238 | 1232 | 1225 | 1901.8 | 1873 | 1848.8 | 1826.1
x2 = 0.1997 | 1220 | 1213 | 1207 | 1200 | 1841.5 | 1816.1 | 1792.7 | 1770
x2 = 0.3002 | 1192 | 1186 | 1179 | 1172 | 1779.2 | 1755.3 | 1732.3 | 1709.5
x2 = 0.4011 | 1158 | 1152 | 1145 | 1138 | 1708.9 | 1684.6 | 1660.7 | 1637.1
x2 = 0.4999 | 1119 | 1112 | 1105 | 1098 | 1628.4 | 1604 | 1579.6 | 1555.3
x2 = 0.5998 | 1075 | 1068 | 1060 | 1053 | 1546.5 | 1521.1 | 1495.6 | 1470.4
x2 = 0.7 | 1024 | 1016 | 1009 | 1001 | 1457.7 | 1430.9 | 1404.2 | 1377.6
x2 = 0.8002 | 964 | 956 | 947 | 939 | 1364.5 | 1336.1 | 1307.8 | 1279.7
x2 = 0.8999 | 892 | 883 | 874 | 865 | 1265.5 | 1234.9 | 1204.5 | 1174.5
